One may read the IC50 as the midpoint of a concentration-inhibition curve.

Read-outs that look alike come from different tables or passages of the source.

The values below come from patent US11555012B2 (Nimbus Artemis, Inc., priority 2018, dated 2023).

In assay [1] the test system is HepG2 cells. The following applies: Homo sapiens, HepG2, read-out: ACLY HepG2 14C-Pyruvate Assay serum free IC50 Cholesterol (IC50) [μM].
Experimental: ACLY HepG2 ^14C-Pyruvate Incorporation Serum-Free Assay (IC50 Cholesterol and Fatty Acid Synthesis)
Compounds of the present invention were evaluated in a HepG2 ^14C-pyruvate incorporation assay. The protocol below was followed:
(§1) After 48 hours, change medium with fresh growth medium.
(§2) After 18 hours, replaced medium using 0.5 mL fresh medium (5.5 mM Glucose, without FBS, 1% PS, without Pyruvate) containing Compounds or 0.5% DMSO, incubated at 37° C., 5% CO2 for 1 hour.
(§3) Add 3 μci of [14C]-pyruvate per well to the cell samples were incubated at 37° C., 5% CO2 for 5 hours.
Medium was removed and placed into a 15 mL centrifuge tube. Add 0.5 mL of 0.1M NaOH to each well and then transfer the cell lysates into the corresponding 15 mL centrifuge tubes. 1.0 mL of EtOH and 0.17 mL 50% KOH were added to 15 mL tubes containing medium and cell suspensions, then shaking tube gently. […] Saponification 15 mL tubes containing medium and cell suspensions were incubated at 90° C. for 1 hour, then cooled to room temperature. […] Cholesterol Extraction 5 mL of petroleum ether was added per tube to extract Cholesterol, shaken vigorously, centrifuged at 1000 rpm for 5 min, and ˜5 mL of the petroleum ether layer was transferred to a new glass tube (18*180 mm). […] Acidification The samples in 15 mL tube were acidified directly with 1 mL concentrated HCl, make sure pH was below 1. […] Fatty Acids Extraction 5 mL of petroleum ether was added per tube, shaken vigorously, centrifuged at 1000 rpm for 5 min, 5 mL of the petroleum ether layer was transferred to the corresponding glass tube. […] Count The petroleum ether extracts were pooled and evaporated to dryness overnight. The residue from the petroleum ether fractions were resuspended in 500 μL of chloroform-hexane (1:1) containing 420 μg of linoleic acid as a carrier. Add 200 μL of resuspending (chloroform-hexane (1:1) containing 168 μg of linoleic acid) to 2 mL Ultima Gold™, after 30 min, count on a scintillation counter.
The target in assay [2] is T1, ACL (Homo sapiens (Human), UniProt P53396). Description: ADP-Glo Assay. (In ADP-Glo the light output rises with the ADP produced.)
Target sequence in this assay (P53396 other isoform, or with tags, fused parts or gaps isoform P53396-2): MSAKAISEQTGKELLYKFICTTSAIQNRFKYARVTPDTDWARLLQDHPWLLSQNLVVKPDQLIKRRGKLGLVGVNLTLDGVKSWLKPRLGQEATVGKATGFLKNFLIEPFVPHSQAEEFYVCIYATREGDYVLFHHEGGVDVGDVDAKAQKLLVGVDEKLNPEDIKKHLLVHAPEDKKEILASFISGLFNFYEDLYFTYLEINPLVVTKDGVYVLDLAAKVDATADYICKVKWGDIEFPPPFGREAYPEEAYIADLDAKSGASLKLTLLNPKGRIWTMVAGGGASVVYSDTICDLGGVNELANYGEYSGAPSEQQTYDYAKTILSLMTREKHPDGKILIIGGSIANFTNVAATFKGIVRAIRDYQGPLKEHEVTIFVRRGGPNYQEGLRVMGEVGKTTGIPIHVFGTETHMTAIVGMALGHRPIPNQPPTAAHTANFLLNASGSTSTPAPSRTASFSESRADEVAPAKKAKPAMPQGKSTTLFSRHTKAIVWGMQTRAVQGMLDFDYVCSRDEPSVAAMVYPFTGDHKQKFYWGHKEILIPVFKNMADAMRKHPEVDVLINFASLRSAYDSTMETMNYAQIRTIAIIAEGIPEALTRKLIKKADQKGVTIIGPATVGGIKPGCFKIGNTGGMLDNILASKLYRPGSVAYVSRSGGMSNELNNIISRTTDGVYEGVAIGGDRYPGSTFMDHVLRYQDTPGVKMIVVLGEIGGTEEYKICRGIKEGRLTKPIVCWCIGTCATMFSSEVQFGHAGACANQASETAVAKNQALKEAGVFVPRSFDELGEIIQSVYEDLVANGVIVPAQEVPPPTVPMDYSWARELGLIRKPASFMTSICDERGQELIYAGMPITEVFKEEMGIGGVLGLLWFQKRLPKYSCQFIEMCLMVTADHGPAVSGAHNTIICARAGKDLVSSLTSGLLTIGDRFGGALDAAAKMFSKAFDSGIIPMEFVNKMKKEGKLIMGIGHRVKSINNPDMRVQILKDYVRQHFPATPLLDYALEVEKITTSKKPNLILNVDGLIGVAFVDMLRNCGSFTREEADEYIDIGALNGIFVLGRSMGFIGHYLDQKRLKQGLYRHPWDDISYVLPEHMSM
Assay [3] deals with HepG2 cells. Particulars: Homo sapiens, HepG2, read-out: ACLY HepG2 14C-Pyruvate Assay serum free IC50 FA (IC50) [μM].
Experimental: ACLY HepG2 ^14C-Pyruvate Incorporation Serum-Free Assay (IC50 Fatty
The protocol of the assay (below) was followed:
as §1, §2, §3
Medium was removed and placed into a 15 mL centrifuge tube. Add 0.5 mL of 0.1M NaOH to each well and then transfer the cell lysates into the corresponding 15 mL centrifuge tubes. 1.0 mL of EtOH and 0.17 mL 50% KOH were added to 15 mL tubes containing medium and cell suspensions, then shaking tube gently. […] Saponification 15 mL tubes containing medium and cell suspensions were incubated at 90° C. for 1 hour, then cooled to room temperature. […] Cholesterol Extraction 5 mL of petroleum ether was added per tube to extract Cholesterol, shaken vigorously, centrifuged at 1000 rpm for 5 min, and ˜5 mL of the petroleum ether layer was transferred to a new glass tube (18*180 mm). […] Acidification The samples in 15 mL tube were acidified directly with 1 mL concentrated HCl, make sure pH was below 1. […] Fatty Acids Extraction 5 mL of petroleum ether was added per tube, shaken vigorously, centrifuged at 1000 rpm for 5 min, 5 mL of the petroleum ether layer was transferred to the corresponding glass tube. […] Repeat the Step 8 10. Count The petroleum ether extracts were pooled and evaporated to dryness overnight. The residue from the petroleum ether fractions were resuspended in 500 μL of chloroform-hexane (1:1) containing 420 μg of linoleic acid as a carrier. Add 200 μL of resuspending (chloroform-hexane (1:1) containing 168 μg of linoleic acid) to 2 mL Ultima Gold™, after 30 min, count on a scintillation counter.
For assay [4], the target named is T1, ACL. In words: ACLY-MDH Coupled Assay.
Target sequence in this assay (P53396 whole entry, species assumed): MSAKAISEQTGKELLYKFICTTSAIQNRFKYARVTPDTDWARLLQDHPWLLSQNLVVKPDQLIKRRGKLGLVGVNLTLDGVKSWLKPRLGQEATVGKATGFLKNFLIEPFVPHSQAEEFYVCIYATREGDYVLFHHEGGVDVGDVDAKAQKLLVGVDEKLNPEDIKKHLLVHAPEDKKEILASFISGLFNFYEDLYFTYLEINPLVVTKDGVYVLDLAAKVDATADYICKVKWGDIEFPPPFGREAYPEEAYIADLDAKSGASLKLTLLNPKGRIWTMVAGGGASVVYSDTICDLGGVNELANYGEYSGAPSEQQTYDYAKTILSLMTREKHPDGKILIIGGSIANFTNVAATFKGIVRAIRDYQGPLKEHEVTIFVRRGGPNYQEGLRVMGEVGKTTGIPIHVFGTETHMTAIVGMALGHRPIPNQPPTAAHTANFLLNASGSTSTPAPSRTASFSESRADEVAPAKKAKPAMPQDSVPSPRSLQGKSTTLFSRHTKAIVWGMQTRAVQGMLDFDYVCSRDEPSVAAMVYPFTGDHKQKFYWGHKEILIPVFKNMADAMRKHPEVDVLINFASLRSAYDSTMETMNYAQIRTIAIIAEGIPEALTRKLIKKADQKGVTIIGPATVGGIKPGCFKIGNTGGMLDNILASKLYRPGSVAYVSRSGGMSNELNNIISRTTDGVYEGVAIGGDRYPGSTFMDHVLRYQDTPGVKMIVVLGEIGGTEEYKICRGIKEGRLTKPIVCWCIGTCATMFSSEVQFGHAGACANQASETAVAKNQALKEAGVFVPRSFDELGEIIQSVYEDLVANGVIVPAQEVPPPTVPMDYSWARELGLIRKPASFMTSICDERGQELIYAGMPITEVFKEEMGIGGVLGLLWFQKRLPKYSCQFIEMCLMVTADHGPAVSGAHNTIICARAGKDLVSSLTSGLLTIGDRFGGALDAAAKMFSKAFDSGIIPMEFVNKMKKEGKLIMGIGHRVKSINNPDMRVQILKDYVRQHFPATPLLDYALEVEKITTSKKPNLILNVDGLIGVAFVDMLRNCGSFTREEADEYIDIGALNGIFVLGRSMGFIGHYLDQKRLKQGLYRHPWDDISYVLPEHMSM
Experimental: Compounds of the present invention were evaluated in an ACLY Coupled Assay.
The assay protocol for the Coupled Assay (below) was followed:
b) Add 1 μL cpds to 96 assay plate, Test cpd conc: 100/30/10 μM top dose, 3 folds dilution, 10+0+control (control: buffer without ACL+DMSO) points, 1000 rpm for 1 min, incubation at 25° C. for 60 min
Where [5] appears, read: read-out: ACL-ADP-Glo (IC50), 3 nM ACL, 15 μM ATP, 3 μM CoA, 300 μM Citrate.
Setting [6] is: read-out: ACL-MDH Coupled Assay (IC50), 8 nM ACL, 60 μM CoA Na2, 85 μM Citrate, 250 μM ATP, 250 μM NADH.

Consider `N#Cc1cc(Cl)c(O)c(S(=O)(=O)Nc2cc(-c3ccccc3)ccc2F)c1` [I-31, 3-chloro-5-cyano-N-(4-fluoro-[1,1′-biphenyl]-3-yl)-2-hydroxybenzenesulfonamide], for which the IC50 was 1 to 5 µM in assay [1], under 50 nM in assay [2] (setting [5]), over 10 µM in assay [3] and 50 to 500 nM in assay [4].
As for `O=C(O)c1cc(F)c(-c2ccccc2)cc1NS(=O)(=O)c1cc(Cl)cc(Cl)c1` [I-287, 5-((3,5-dichlorophenyl)sulfonamido)-2-fluoro-[1,1′-biphenyl]-4-carboxylic Acid], the IC50 in assay [1] is 1 to 5 µM; in assay [2], 50 to 500 nM; in assay [3] it was 1 to 10 µM; in assay [4] it was 50 to 500 nM.
For `O=C(O)c1ccc(-c2ccccc2)cc1NS(=O)(=O)c1cc(Cl)cc(Cl)c1` [I-208, 3-((3,5-dichlorophenyl)sulfonamido)-[1,1′-biphenyl]-4-carboxylic Acid], the IC50 in assay [1] fell in the range of 1 to 5 µM; in assay [2] it was 50 to 500 nM; in assay [3] it was 1 to 10 µM; in assay [4], 50 to 500 nM.
With `COC(=O)c1cc(Cl)c(O)c(S(=O)(=O)Nc2cc(-c3cccs3)ccc2F)c1` [I-60, Methyl 3-chloro-5-[[2-fluoro-5-(thiophen-2-yl)phenyl]sulfamoyl]-4-hydroxybenzoate], the IC50 is under 1 µM in assay [1], under 50 nM in assay [2] (setting [5]), 1 to 10 µM in assay [3] and under 50 nM in assay [4] (setting [6]).
As for `O=S(=O)(Nc1cc(-c2ccccc2)c(F)cc1F)c1cc(F)cc(Cl)c1O` [I-135, 3-chloro-N-[4,6-difluoro-[1,1-biphenyl]-3-yl]-5-fluoro-2-hydroxybenzene-1-sulfonamide], the IC50 in assay [1] lay within 1 to 5 µM; in assay [2], 50 to 500 nM; in assay [3], 1 to 10 µM; in assay [4], 50 to 500 nM.
Regarding `COc1ccc(-c2cccs2)cc1NS(=O)(=O)c1cc(Cl)cc(Cl)c1O` [I-9, 3,5-dichloro-2-hydroxy-N-(2-methoxy-5-(thiophen-2-yl)phenyl)benzenesulfonamide], the IC50 in assay [1] lay in the range of 1 to 5 µM; in assay [2] it was 50 to 500 nM; in assay [3], 1 to 10 µM; in assay [4], 50 to 500 nM.
As for `O=C(O)c1ccc(-c2ccccc2)cc1NS(=O)(=O)c1cccc(-n2cnnn2)c1` [I-372], the IC50 is 1 to 5 µM in assay [1], 500 to 20000 nM in assay [2], over 10 µM in assay [3] and 500 to 30000 nM in assay [4].
Consider `COc1c(Cl)cc(C(F)(F)F)cc1S(=O)(=O)Nc1cc(-c2ccccc2)ccc1C(=O)O` [I-296, 3-((3-chloro-2-methoxy-5-(trifluoromethyl)phenyl)sulfonamido)-[1,1′-biphenyl]-4-carboxylic Acid], for which the IC50 lay within 1 to 5 µM in assay [1], 50 to 500 nM in assay [2], 1 to 10 µM in assay [3] and 50 to 500 nM in assay [4].
Turning to `COC(=O)c1cc(Cl)c(O)c(S(=O)(=O)Nc2cc(C3CC3)c(F)cc2F)c1` [I-127, Methyl 3-chloro-5-[(5-cyclopropyl-2,4-difluorophenyl)sulfamoyl]-4-hydroxybenzoate], the IC50 in assay [1] was 1 to 5 µM; in assay [2] (setting [5]), under 50 nM; in assay [3] it was over 10 µM; in assay [4] (setting [6]), under 50 nM.
With `COc1ccc(-c2ccccc2)cc1NS(=O)(=O)c1cc(Br)cc(Cl)c1O` [I-21, 5-bromo-3-chloro-2-hydroxy-N-(2-methoxy-5-phenylphenyl)benzene-1-sulfonamide], the IC50 in assay [1] lay in the range of 1 to 5 µM; in assay [2] it was 50 to 500 nM; in assay [3], 1 to 10 µM; in assay [4], 50 to 500 nM.
For the molecule `O=S(=O)(Nc1cc(-c2ccccc2)ccc1F)c1cccc(Cl)c1O` [I-33, 3-chloro-N-(4-fluoro-[1,1′-biphenyl]-3-yl)-2-hydroxybenzenesulfonamide], the IC50 in assay [1] was 1 to 5 µM; in assay [2], 50 to 500 nM; in assay [3] it was over 10 µM; in assay [4] it was 500 to 30000 nM.
In the case of `CC(C)OC(=O)c1cc(Cl)c(O)c(S(=O)(=O)Nc2cc(-c3ccccc3)c(F)cc2F)c1` [I-86, propan-2-yl 3-chloro-5-[(2,4-difluoro-5-phenylphenyl)sulfamoyl]-4-hydroxybenzoate], the IC50 is 1 to 5 µM in assay [1], under 50 nM in assay [2] (setting [5]), over 10 µM in assay [3] and under 50 nM in assay [4] (setting [6]).
Consider `CCOc1c(Cl)cc(Cl)cc1S(=O)(=O)Nc1cc(-c2ccccc2)ccc1C(=O)O` [I-348, 3-((3,5-dichloro-2-ethoxyphenyl)sulfonamido)-[1,1′-biphenyl]-4-carboxylic Acid], for which the IC50 was in the range of 1 to 5 µM in assay [1], 50 to 500 nM in assay [2], 1 to 10 µM in assay [3] and 50 to 500 nM in assay [4].
As to `COC(=O)c1cc(Cl)c(O)c(S(=O)(=O)Nc2cc(-c3cc4ccccc4s3)c(F)cc2F)c1` [I-128, Methyl 3-[[5-(1-benzothiophen-2-yl)-2,4-difluorophenyl]sulfamoyl]-5-chloro-4-hydroxybenzoate], the IC50 in assay [1] was 5 to 20 µM; in assay [2] (setting [5]), under 50 nM; in assay [3] it was over 10 µM; in assay [4] (setting [6]), under 50 nM.
Turning to `COCc1cc(Cl)c(O)c(S(=O)(=O)Nc2cc(-c3ccccc3)c(F)cc2F)c1` [I-91, 3-chloro-N-(2,4-difluoro-5-phenylphenyl)-2-hydroxy-5-(methoxymethyl)benzene-1-sulfonamide], the IC50 in assay [1] lay in the range of 1 to 5 µM; in assay [2], 50 to 500 nM; in assay [3], 1 to 10 µM; in assay [4] it was 50 to 500 nM.
`COC(=O)c1cc(Cl)c(O)c(S(=O)(=O)Nc2cc(-c3cccnc3)ccc2OC)c1` [I-48, Methyl 3-chloro-4-hydroxy-5-(N-(2-methoxy-5-(pyridin-3-yl)phenyl)sulfamoyl)benzoate]: the IC50 in assay [1] is 1 to 5 µM; in assay [2] it was 50 to 500 nM; in assay [3], over 10 µM; in assay [4], 500 to 30000 nM.
On to `COC(=O)c1cc(Cl)c(O)c(S(=O)(=O)Nc2cc(-c3ccccc3)c(F)cc2F)c1` [I-65, Methyl 3-chloro-5-[(2,4-difluoro-5-phenylphenyl)sulfamoyl]-4-hydroxybenzoate], for which the concentration for half-maximal inhibition (IC50) was 5 to 20 µM in assay [1], under 50 nM in assay [2] (read-out: ACL-ADP-Glo (IC50)), over 10 µM in assay [3] and under 50 nM in assay [4] (setting [6]).
For `O=S(=O)(Nc1cc(-c2ccccc2)c(F)cc1F)c1cc(-c2ncco2)cc(Cl)c1O` [I-116, 3-chloro-N-[4,6-difluoro-[1,1-biphenyl]-3-yl]-2-hydroxy-5-(1,3-oxazol-2-yl)benzene-1-sulfonamide], the IC50 in assay [1] is 1 to 5 µM; in assay [2] (setting [5]), under 50 nM; in assay [3] it was over 10 µM; in assay [4] (setting [6]), under 50 nM.
On to `O=S(=O)(Nc1cc(-c2ccccc2)c(F)cc1F)c1cc(CO)cc(Cl)c1O` [I-90, 3-chloro-N-(2,4-difluoro-5-phenylphenyl)-2-hydroxy-5-(hydroxymethyl)benzene-1-sulfonamide], for which the IC50 in assay [1] is 1 to 5 µM; in assay [2], 50 to 500 nM; in assay [3], over 10 µM; in assay [4], 50 to 500 nM.
On to `O=c1[nH]cc(Cl)cc1S(=O)(=O)Nc1cc(-c2ccccc2)c(F)cc1F` [I-298, 5-chloro-N-[4,6-difluoro-[1,1-biphenyl]-3-yl]-2-oxo-1,2-dihydropyridine-3-sulfonamide], for which the IC50 in assay [1] is 5 to 20 µM; in assay [2] it was 50 to 500 nM; in assay [3], over 10 µM; in assay [4] it was 50 to 500 nM.
